Laboratory results published in patent US20060084688A1, “Aromatic sulfone hydroxamic acid metalloprotease inhibitor” (priority 1997, published 2006).
Read-outs that look alike come from different tables or passages of the source.

Tests used:
TNFrII = assay: Tumor necrosis factor assay: TNF Receptor II ELISA on supernatant of PMA-stimulated U-937 cells; details: Homo sapiens, U-937, read-out: TNFRII Release IC50 in micromolar
[1] = test system: human monocytic line U-937; format: cell-based
recombinant human MMP-13 = recombinant human MMP-13 (Homo sapiens, UniProt P45452); assay: biochemical; details: Inhibition Table B
recombinant human MMP-1 = biological target: T1, recombinant human MMP-1 (Homo sapiens, UniProt P03956); assay: biochemical; details: Inhibition Table B
T1 construct: made in house; host or cells: transfected HT-1080 cells
T1 sequence (P03956 100-469): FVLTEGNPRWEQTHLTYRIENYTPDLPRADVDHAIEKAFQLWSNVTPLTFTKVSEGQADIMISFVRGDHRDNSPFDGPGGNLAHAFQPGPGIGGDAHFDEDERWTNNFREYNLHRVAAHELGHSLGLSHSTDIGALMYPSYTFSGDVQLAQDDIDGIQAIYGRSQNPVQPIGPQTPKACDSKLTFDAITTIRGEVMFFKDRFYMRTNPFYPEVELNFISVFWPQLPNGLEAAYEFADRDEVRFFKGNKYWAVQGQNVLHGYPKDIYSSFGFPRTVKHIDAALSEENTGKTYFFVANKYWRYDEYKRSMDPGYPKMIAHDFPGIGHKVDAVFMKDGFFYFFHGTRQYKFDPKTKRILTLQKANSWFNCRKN

recombinant human MMP-2 = biological target: T2, recombinant human MMP-2 (Homo sapiens, UniProt P08253); assay: biochemical; details: Inhibition Table B
T2 sequence (P08253 110-660): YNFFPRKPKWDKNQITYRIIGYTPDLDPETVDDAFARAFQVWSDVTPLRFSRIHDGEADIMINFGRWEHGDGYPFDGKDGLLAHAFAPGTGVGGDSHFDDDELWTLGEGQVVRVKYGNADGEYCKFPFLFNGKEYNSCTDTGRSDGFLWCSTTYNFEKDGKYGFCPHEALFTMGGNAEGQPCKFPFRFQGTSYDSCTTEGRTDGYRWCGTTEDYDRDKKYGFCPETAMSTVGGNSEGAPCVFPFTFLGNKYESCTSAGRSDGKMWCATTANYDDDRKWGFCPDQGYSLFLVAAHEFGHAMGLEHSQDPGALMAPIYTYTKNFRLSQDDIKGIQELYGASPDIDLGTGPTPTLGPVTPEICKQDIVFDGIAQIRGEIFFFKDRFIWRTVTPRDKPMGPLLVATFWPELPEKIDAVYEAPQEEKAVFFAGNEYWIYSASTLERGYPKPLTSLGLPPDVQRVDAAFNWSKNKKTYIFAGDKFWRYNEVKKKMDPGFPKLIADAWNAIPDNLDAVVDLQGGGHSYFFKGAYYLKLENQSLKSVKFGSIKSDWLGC

[2] = test system: advanced, rapidly progressive, treatment-refractory solid tumor cancers (colorectal, pancreatic, ovarian, prostate); details: Phase I/II, cited from earlier work
[3] = test system: PC-3 human pancreatic cancer cells (ATCC CRL 1435); assay: In vivo PC-3 tumor reduction; design: species or system Balb/c nu/nu mice; details: day 0 to day 25-30, average of n studies
Protocol: PC-3 human pancreatic cancer eclls (ATCC CRL 1435) were grown to 90% confluence in F12/MEM (Gibco) containing 7% FBS (Gibco). Cells were mechanically harvested using a rubber scraper, and then washed twice with cold medium. The resulting cells were resuspended in cold medium with 30% matrigel (Collaborative Research) and the cell-containing medium was maintained on ice until used.
Balb/c nu/nu mice at 7-9 weeks of age were anesthetized with avertin [2,2,2-tribromethanol/t-amyl alcohol (1 g/l mL) diluted 1:60 into phosphate-buffered sline] and 3-5×10^6 of the above cells in 0.2 mL of medium were injected into the left flank of each mouse. Cells were injected in the morning, whereas dosing with an inhibitor began at 6 PM. The animals were gavaged BID from day zero (cell injection day) to day 25-30, at which time the animals were euthanized and tumors weighed.
Compounds were dosed at 10 mg/mL in 0.5% methylcellulose/0.1% polysorbate 80 to provide a 50 mg/kg (mpk) dose twice each day, or diluted to provide a 10 mg/kg (mpk) dose twice each day. Tumor measurements began on day 7 and continued every third or fourth day until completion of the study. Groups of ten mice were used in each study and nine to ten survived. Each group of mice so studied constitutes an “n” value of one, so that “n” values greater than one represent multiple studies whose averaged result is provided in the table. […]

[4] = test system: neovascularization of the corneal stroma; assay: In vivo angiogenesis assay (corneal micropocket, bFGF/sucralfate Hydron pellet); design: species or system C57Bl/6 female mouse; details: 50 mpk bid, po; scored at day five; average of n studies
Protocol: The study of angiogenesis depends on a reliable and reproducible model for the stimulation and inhibition of a neovascular response. The corneal micropocket assay provides such a model of angiogenesis in the cornea of a mouse. See, A Model of Angiogenesis in the Mouse Cornea; Kenyon, BM, et al., Investigative Ophthalmology & Visual Science, July 1996, Vol. 37, No. 8.
In this assay, uniformLy sized Hydron™ pellets containing bFGF and sucralfate were prepared and surgically implanted into the stroma mouse cornea adjacent to the temporal limbus. […]
Mice were dosed on a daily basis for the duration of the assay. […] At day five, the degree of angiogenic inhibition was scored by viewing the neovascular progression with a slit lamp microscope.
The mice were anesthetized and the studied eye was once again proptosed. The maximum vessel length of neovascularization, extending from the limbal vascular plexus toward the pellet was measured. In addition, the contiguous circumferential zone of neovascularization was measured as clock hours, where 30 degrees of arc equals one clock hour. The area of angiogenesis was calculated as follows. […]
Five to six mice were utilized for each compound in each study. The studied mice were thereafter compared to control mice and the difference in the area of neovascularization was recorded as an averaged value. […]

Row | Structure (SMILES) | IC50 (TNFrII) | MTS Toxicity TD50 [1] | also measured
1 | C#CCN1CCC(C(=O)NO)(S(=O)(=O)c2ccc(Oc3ccc4c(c3)OCO4)cc2)CC1.Cl [Example 10, 4-[[4-(1,3-benzodioxol-5-yloxy)phenyl]sulfonyl]-N-hydroxy-1-(2-propynyl)-4-piperidinecarboxamide] | > 100 µM | >100 µM | –
2 | O=C(NO)C1(S(=O)(=O)c2ccc(Sc3ccccc3)cc2)CCOCC1 [Example 95, Tetrahydro-N-hydroxy-4-[[4-(phenylthio)phenyl]sulfonyl]-2H-pyran-4-carboxamide] | > 100 µM | >100 µM | t1/2 (Rat Intraveneous, 20 mpk): 1.06 h
3 | Cl.O=C(NO)C1(S(=O)(=O)c2ccc(Oc3ccccc3)cc2)CCNCC1 [Example 4, N-hydroxy-4-[(4-phenoxyphenyl)sulfonyl]-4-piperidinecarboxamide] | > 100 µM | >100 µM | –
4 | Cl.O=C(NO)C1(S(=O)(=O)c2ccc(Sc3ccc(F)cc3)cc2)CCN(C2CC2)CC1 [Example 27, 1-cyclopropyl-4-[[4-[(4-fluorophenyl)thio]phenyl]sulfonyl]-N-hydroxy-4-piperidinecarboxamide] | > 100 µM | 100 µM | –
5 | C#CCN1CCC(C(=O)NO)(S(=O)(=O)c2ccc(SC3CCCCC3)cc2)CC1.Cl [Example 13, 4-[[4-(cyclohexylthio)-phenyl]sulfonyl]-N-hydroxy-1-(2-propynyl)-4-piperidinecarboxamide] | > 100 µM | >100 µM | –
6 | C#CCN1CCC(C(=O)NO)(S(=O)(=O)c2ccc(Sc3ccccc3)cc2)CC1.Cl [Example 9, N-hydroxy-4-([4-(phenylthio)phenyl]sulfonyl]-1-(2-propynyl)-4-piperidinecarboxamide] | > 100 µM | >100 µM | –
7 | COCCN1CCC(C(=O)NO)(S(=O)(=O)c2ccc(Sc3ccccc3)cc2)CC1.Cl [Example 35, N-hydroxy-1-(2-methoxyethyl)-4-[[4-(phenylthio)phenyl]-sulfonyl]-4-piperidinecarboxamide, monohydrochloride] | > 100 µM | >100 µM | –
8 | O=C(NO)C1(S(=O)(=O)c2ccc(Oc3ccc(OC(F)(F)F)cc3)cc2)CCOCC1 [Example 69] | > 100 µM | 100 µM | Blood Level @ 3 min (rat, in vivo, 20 mg/kg): 44000 ng/mL; BA (rat, in vivo, po, 20 mg/kg): 35.9%; Blood Level @ 6 hr (rat, in vivo, po, 20 mg/kg): 1172 ng/mL
9 | O=C(NO)C1(S(=O)(=O)c2ccc(Oc3ccc(C(F)(F)F)cc3)cc2)CCOCC1 [Example 379] | > 100 µM | 80 µM | t1/2 (Rat Intraveneous, 20 mpk): 1.74 h
10 | Cc1cc(Oc2ccc(S(=O)(=O)C3(C(=O)NO)CCNCC3)cc2)ccc1Cl.Cl [Example 79, 4-[[4-(4-chloro-3-methylphenoxy)phenyl]sulfonyl]-N-hydroxy-4-piperidinecarboxamide, monohydrochloride] | – | – | IC50 (recombinant human MMP-13): 0.0017 µM; AUC (0-∞) (Rat Intraveneous, 20 mpk): 6110 ng·h/mL; t1/2 (Rat Intraveneous, 20 mpk): 1.82 h; Blood Level @ 3 min (Rat Intraveneous, 20 mpk, 3 min): 13990 ng/mL; AUC (0-6 hr) (Rat Oral, 20 mpk): 70 ng·h/mL; BA (Rat Oral, 20 mpk): 1.1%; Cmax (Rat Oral, 20 mpk): 20 ng/mL; Blood Level @ 6 hr (Rat Oral, 20 mpk, 6 hr): 10 ng/mL; IC50 (recombinant human MMP-1): > 10 µM; IC50 (recombinant human MMP-2): 0.001 µM
11 | C#CCN1CCC(C(=O)NO)(S(=O)(=O)c2ccc(Oc3ccccc3)cc2)CC1.Cl [Example 6, N-hydroxy-4-[(4-phenoxyphenyl)sulfonyl]-1-(2-propynyl)-4-piperidinecarboxamide] | > 100 µM | >100 µM | –
12 | CNC(=O)[C@@H](NC(=O)[C@H](CC(C)C)[C@H](O)C(=O)NO)C(C)(C)C [marimastat] | – | – | most common drug-related toxicity ([2]; clinical trials): musculoskeletal pain and stiffness; cancer-specific antigens used as surrogate markers for biological activity ([2]; patients with advanced solid tumor cancers): dose-related reduction in the rise of cancer-specific antigens; Average Percentage Reduction In Tumor Weight ([3]; 10 mpk BID gavage): <5%; Average Percentage Reduction In Tumor Weight ([3]; 50 mpk BID gavage): 39 (n = 2) percent; Inhibition of Angiogenesis (area of neovascularization vs control) [4]: 48 (n = 6) percent
